Reference: the supplement of paper PMC10307832

Tests used:
Test in all cases: relative viability (nuclei count vs DMSO), 5 days (fraction); higher = more cells survive
RERF-LC-KJ = system: RERF-LC-KJ
How it was run: (§1)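 Values are medians from duplicate plates. Each reflects relative viability, defined as the nuclei count of treated wells over that of vehicle wells. Lung cancer cell lines in 1536-well plates were pin-tool dosed one day after seeding with one drug alone or with a fixed anchor-drug dose plus five library-drug doses (not always all listed) in √10 steps, then fixed, stained and imaged at 4× after 5 days.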

NCI-H2126 = system: NCI-H2126
How it was run: as §1

NCI-H1666 = system: NCI-H1666
How it was run: as §1

COR-L 105 = system: COR-L 105
How it was run: as §1

NCI-H520 = system: NCI-H520
How it was run: as §1

NCI-H522 = system: NCI-H522
How it was run: as §1

NCI-H661 = system: NCI-H661
How it was run: as §1

ChaGo-K-1 = system: ChaGo-K-1
How it was run: as §1

NCI-H23 = system: NCI-H23
How it was run: as §1

NCI-H650 = system: NCI-H650
How it was run: as §1

NCI-H647 = system: NCI-H647
How it was run: as §1

NCI-H2347 = system: NCI-H2347
How it was run: as §1

NCI-H1915 = system: NCI-H1915
How it was run: as §1

PC-14 = system: PC-14
How it was run: as §1

LC-2-ad = system: LC-2-ad
How it was run: as §1

HCC-78 = system: HCC-78
How it was run: as §1

201T = system: 201T
How it was run: as §1

EPLC-272H = system: EPLC-272H
How it was run: as §1

LCLC-97TM1 = system: LCLC-97TM1
How it was run: as §1

NCI-H2405 = system: NCI-H2405
How it was run: as §1

HCC-827 = system: HCC-827
How it was run: as §1

NCI-H2087 = system: NCI-H2087
How it was run: as §1

NCI-H322M = system: NCI-H322M
How it was run: as §1

H3255 = system: H3255
How it was run: as §1

CC(C)Oc1cc(Nc2nc(N[C@@H](C)c3ccc(F)cn3)ncc2Cl)n[nH]1 [AZ23] + Cc1cc(Nc2cc(N3CCN(C)CC3)nc(Sc3ccc(NC(=O)C4CC4)cc3)n2)n[nH]1 [Tozasertib] (partner 0.1 µM)
relative viability (RERF-LC-KJ; first compound 0.01 µM): 0.532
relative viability (RERF-LC-KJ; first compound 0.03162 µM): 0.569
relative viability (RERF-LC-KJ; first compound 0.3162 µM): 0.572
relative viability (NCI-H2126; first compound 0.01 µM): 0.923
relative viability (NCI-H2126; first compound 0.03162 µM): 0.939
relative viability (NCI-H2126; first compound 0.3162 µM): 0.892
relative viability (NCI-H1666; first compound 0.01 µM): 0.558
relative viability (NCI-H1666; first compound 0.03162 µM): 0.583
relative viability (NCI-H1666; first compound 0.3162 µM): 0.545
relative viability (COR-L 105; first compound 0.01 µM): 0.375
relative viability (COR-L 105; first compound 0.03162 µM): 0.447
relative viability (COR-L 105; first compound 0.3162 µM): 0.365
relative viability (NCI-H520; first compound 0.01 µM): 0.455
relative viability (NCI-H520; first compound 0.03162 µM): 0.485
relative viability (NCI-H520; first compound 0.3162 µM): 0.475
relative viability (NCI-H522; first compound 0.01 µM): 0.519
relative viability (NCI-H522; first compound 0.03162 µM): 0.567
relative viability (NCI-H522; first compound 0.3162 µM): 0.65
relative viability (NCI-H661; first compound 0.01 µM): 0.366
relative viability (NCI-H661; first compound 0.03162 µM): 0.354
relative viability (NCI-H661; first compound 0.3162 µM): 0.353
relative viability (ChaGo-K-1; first compound 0.01 µM): 0.234
relative viability (ChaGo-K-1; first compound 0.03162 µM): 0.234
relative viability (ChaGo-K-1; first compound 0.3162 µM): 0.235
relative viability (NCI-H23; first compound 0.03162 µM): 0.558
relative viability (NCI-H23; first compound 0.3162 µM): 0.363
relative viability (NCI-H650; first compound 0.01 µM): 0.728
relative viability (NCI-H650; first compound 0.03162 µM): 0.75
relative viability (NCI-H650; first compound 0.3162 µM): 0.802
relative viability (NCI-H647; first compound 0.01 µM): 0.146
relative viability (NCI-H647; first compound 0.03162 µM): 0.449
relative viability (NCI-H647; first compound 0.3162 µM): 0.261
relative viability (NCI-H2347; first compound 0.01 µM): 0.645
relative viability (NCI-H2347; first compound 0.03162 µM): 0.609
relative viability (NCI-H2347; first compound 0.3162 µM): 0.604
relative viability (NCI-H1915; first compound 0.01 µM): 0.479
relative viability (NCI-H1915; first compound 0.03162 µM): 0.507
relative viability (NCI-H1915; first compound 0.3162 µM): 0.514
relative viability (PC-14; first compound 0.01 µM): 0.428
relative viability (PC-14; first compound 0.03162 µM): 0.656
relative viability (PC-14; first compound 0.3162 µM): 0.696
relative viability (LC-2-ad; first compound 0.01 µM): 0.467
relative viability (LC-2-ad; first compound 0.03162 µM): 0.446
relative viability (LC-2-ad; first compound 0.3162 µM): 0.452
relative viability (HCC-78; first compound 0.01 µM): 0.344
relative viability (HCC-78; first compound 0.03162 µM): 0.482
relative viability (HCC-78; first compound 0.3162 µM): 0.334
relative viability (201T; first compound 0.01 µM): 1.03
relative viability (201T; first compound 0.03162 µM): 0.968
relative viability (201T; first compound 0.3162 µM): 0.985
relative viability (EPLC-272H; first compound 0.01 µM): 0.384
relative viability (EPLC-272H; first compound 0.03162 µM): 0.263
relative viability (EPLC-272H; first compound 0.3162 µM): 0.246
relative viability (LCLC-97TM1; first compound 0.01 µM): 0.186
relative viability (LCLC-97TM1; first compound 0.03162 µM): 0.266
relative viability (LCLC-97TM1; first compound 0.3162 µM): 0.194
relative viability (NCI-H2405; first compound 0.01 µM): 0.709
relative viability (NCI-H2405; first compound 0.03162 µM): 0.774
relative viability (NCI-H2405; first compound 0.3162 µM): 0.808
relative viability (HCC-827; first compound 0.01 µM): 0.448
relative viability (HCC-827; first compound 0.03162 µM): 0.445
relative viability (HCC-827; first compound 0.3162 µM): 0.415
relative viability (NCI-H2087; first compound 0.01 µM): 0.271
relative viability (NCI-H2087; first compound 0.03162 µM): 0.245
relative viability (NCI-H2087; first compound 0.3162 µM): 0.245
relative viability (NCI-H322M; first compound 0.03162 µM): 0.501
relative viability (NCI-H322M; first compound 0.3162 µM): 0.434
relative viability (H3255; first compound 0.01 µM): 0.662
relative viability (H3255; first compound 0.03162 µM): 0.821
relative viability (H3255; first compound 0.3162 µM): 0.675
